Reference: US9977309B2, “Electrophoretic fluid” (Merck Patent GmbH, priority 2013, dated 2018)

Experiment: Saturation solubility of dyes in decane
Format: physicochemical

Saturation wt % in decane [wt %] | Compound
0.003 | CCCCCCCCCCCCCCCCCCN(CCCCCCCCCCCCCCCCCC)c1cc(NC(C)=O)c(/N=N/c2c(C#N)cc([N+](=O)[O-])cc2C#N)cc1OC [Dye 1]
0.19 | CCCCCCCCN(CCCCCCCC)c1ccc(/N=N/c2snc(C)c2C#N)c(NC(C)=O)c1 [Dye 4]
1.03 | CCCCCCCCCCCCCCc1ccc(/N=N/c2c(C)c(C#N)c(=O)n(CC(CC)CCCC)c2O)cc1 (stereo not drawn) [Dye 5]
3.72 | CCCCCCCCCCCCCCc1ccc(/N=N/c2c(C)cc(=O)n(CC(CC)CCCC)c2O)cc1 (stereo not drawn) [Dye 6]
9.95 | CCCCc1ccc(/N=N/c2ccc(N(CCCC)CCCC)cc2)cc1 [Dye 7]
10.50 | CCCCCCCCN(CCCCCCCC)c1ccc(/N=N/c2ccc([N+](=O)[O-])cc2)c(C)c1 [Dye 8]
